Measurements: publication PMC12029774 (Molecules, 2025)
Ends that are not written are not given here.

Experiments:
[1] = test system: rVSV-GFP-∆G-Spike, SARS-CoV-2 Delta spike; details: 1 h
[2] = test system: rVSV-GFP-∆G-Spike, SARS-CoV-2 Omicron B.A1 spike; details: 1 h

EWHGAHIKVTQLF-NH2 [PEP10]
IC50 [1]: 47 µM | IC50 [2]: 140 µM
